In US20210372995A1, “BIOMIMETIC PLATFORMS TO MODEL VASCULAR PATHOPHYSIOLOGY, DIAGNOSTICS, AND THERAPY” (The Johns Hopkins University, priority 2017, published 2021):

What was measured:
fibroblasts = settings: 100 µM; cited from earlier work
[1] = cited from earlier work
HPASMC = test: Contractility of aligned HPASMC on microwrinkled PDMS; assay type: cell-based, human; settings: 1 μM, 10 minutes
Method: HPASMC cultivated on microwrinkled PDMS were treated with angiotensin ii (1 μM) and serial phase images were taken (1, 3, 10 minutes, from left to right) to assess cell contraction. […] Scale bar=50 μm.
A 6 μm PDMS film was stretched by 20% with a uniaxial stretching system, followed by exposure to oxygen plasma (Plasma Etcher Inc.) at 80 W for 60 minutes to generate wrinkles (FIG. 1A-FIG. 1C and FIG. 16). […] To test the contractility of aligned HPASMC, HPASMC were exposed to angiotensin II (1 μM; Sigma Aldrich, St. Louis, Mo.) for 10 minutes. […] A more quantitative measurement of SMC contraction is employed as described in the Experimental Design section.

HAEC = settings: 1 μM, 60-minute incubation; HAEC on well plates; cited from earlier work
hTERT HAEC = test: NO production by hTERT HAEC in 3D scaffolds (conditioned media, Seivers NO analyzer); assay type: cell-based, human; settings: 1 μM, 30 minutes; HAEC growing 2 months in 3D scaffolds
Method: Endothelial cells have many functions including the production of nitric oxide (NO). NO is a vasoactive agent important for modulating the vascular smooth muscle tone (Davidge, S. T., et al., Circ Res 1995, 77 (2), 274-83). The confluent cells growing for 2 months in the tubes were tested for NO production to determine endothelial function and viability. To qualitatively assess the NO production, 50 μL of the conditioned-media was analyzed using Seivers NO analyzer. FIGS. 13A-13C show NO production by hTERT HAEC with and without calcium ionophore stimulation. A 7- to 35-fold increase of NO was observed when HAEC growing in 3D scaffolds was stimulated with 1 μM A23187 calcium ionophore for 30 minutes. Others have reported twofold NO increase after 60-minute incubation of HAEC in 1 μM ionomycin grown on well plates (Cosentino, F., et al., Circulation 1997, 96 (1), 25-8). Using bovine coronary microvascular endothelial cells, a 3-fold increase was observed when stimulated with 1 μM A23187 calcium ionophore for 5 hours (Davidge, S. T., et al., Circ Res 1995, 77 (2), 274-83). […] There is difficulty in direct comparison of results with reported observations due to differences in methodology, analysis, and cell types. […] The higher increase in NO production warrants further investigation if 3D geometry affects HAEC NO production. […]

[2] = system: bovine coronary microvascular endothelial cells; settings: 1 μM, 5 hours; cited from earlier work
[3] = system: human coronary artery endothelial cells; settings: 20 ng/mL; cited from earlier work

For `COc1ccccc1Oc1c(NS(=O)(=O)c2ccc(C(C)(C)C)cc2)nc(-c2ncccn2)nc1OCCO` [Bosentan], the proliferation in fibroblasts (fibroblasts) is given as “altered” and the “smooth muscle alpha actin expression in fibroblasts” value (fibroblasts) is given as “altered”.
In the case of `CCCCC[C@H](O)/C=C/[C@@H]1[C@H]2C/C(=C/CCCC(=O)O)O[C@H]2C[C@H]1O` [Prostacyclin], the half-life [1] is given as 3 to 5 min.
With “angiotensin II (DRVYIHPF; Angiotensin-2; UniProt P01019 25-32, looked up) [contractile agent (Sigma Aldrich)]” the “cell contraction of aligned HPASMC” value (HPASMC) was “time-dependent contraction”.
In the case of `C[C@H](CCC(=O)O)C[C@H](C)C[C@H](C)C(=O)/C=C(\O)[C@H](C)C[C@H](C)C/C=C/[C@@H](C)[C@@H](O)[C@@H](C)[C@@H](O)C[C@@H]1CC[C@@](C)([C@H]2CC[C@@](C)([C@@H](C)O)O2)O1` [ionomycin], the NO increase (HAEC) is listed as “twofold”.
For `CNc1ccc2oc(C[C@H]3O[C@@]4(CC[C@H]3C)O[C@H]([C@H](C)C(=O)c3ccc[nH]3)[C@H](C)C[C@H]4C)nc2c1C(=O)O` [A23187], the “increase of NO” value (hTERT HAEC) is listed as 7- to 35 fold and the NO increase [2] is listed as 3 fold.
For hepatocyte growth factor, the NO increase [3] is given as “twofold”.
